In PubChem BioAssay AID1918946 (Molecular Pharmacology Branch, DTP, NCI, 2023):
pIC50: −log10 of the molar value.

Test system: 885512-296-R-J2-PDC complex spheroid viability
Assay: Anticancer human tumor 885512-296-R-J2-PDC patient-derived breast carcinoma cell line growth inhibition
Conditions: for pIC50: curve of first compound; for viability, T/C: stronger effect = lower value; active means viability on the fitted dose curve at most 10% of control; inactive means the rest
Summary of the method: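 Multicellular complex spheroids of tumor cells with human endothelial cells (HUVEC) and mesenchymal stem cells; the LSD1 inhibitor iadademstat was combined with standard-of-care or investigational agents. Top concentration at or near clinical Cmax, half-log dilutions; final DMSO ≤0.25%.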

[1] = second compound 0.1 µM, first compound 0.000316 µM
[2] = second compound 0.1 µM, first compound 0.001 µM
[3] = second compound 0.1 µM, first compound 0.00316 µM
[4] = second compound 0.1 µM, first compound 0.01 µM
[5] = second compound 0.1 µM, first compound 0.0316 µM
[6] = second compound 0.1 µM, first compound 0.1 µM
[7] = second compound 0.316 µM, first compound 0.000316 µM
[8] = second compound 0.316 µM, first compound 0.001 µM
[9] = second compound 0.316 µM, first compound 0.00316 µM
[10] = second compound 0.316 µM, first compound 0.01 µM
[11] = second compound 0.316 µM, first compound 0.0316 µM
[12] = second compound 0.316 µM, first compound 0.1 µM
[13] = second compound 1 µM, first compound 0.000316 µM
[14] = second compound 1 µM, first compound 0.001 µM
[15] = second compound 1 µM, first compound 0.00316 µM
[16] = second compound 1 µM, first compound 0.01 µM
[17] = second compound 1 µM, first compound 0.0316 µM
[18] = second compound 1 µM, first compound 0.1 µM
[19] = second compound 3.16 µM, first compound 0.000316 µM
[20] = second compound 3.16 µM, first compound 0.001 µM
[21] = second compound 3.16 µM, first compound 0.00316 µM
[22] = second compound 3.16 µM, first compound 0.01 µM
[23] = second compound 3.16 µM, first compound 0.0316 µM
[24] = second compound 3.16 µM, first compound 0.1 µM
[25] = second compound 10 µM, first compound 0.000316 µM
[26] = second compound 10 µM, first compound 0.001 µM
[27] = second compound 10 µM, first compound 0.00316 µM
[28] = second compound 10 µM, first compound 0.01 µM
[29] = second compound 10 µM, first compound 0.0316 µM
[30] = second compound 10 µM, first compound 0.1 µM
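Further: spheroids exposed to agents for 7 days before viability read.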

CC(C)CC(NC(=O)C(Cc1ccccc1)NC(=O)c1cnccn1)B(O)O (stereo not given) + NC1CC1c1ccc(-c2cccc(O)c2)cc1
> 9.50: pIC50 (second compound 0.1 µM) | pIC50 (second compound 0.316 µM) | pIC50 (second compound 1 µM) | pIC50 (second compound 3.16 µM) | pIC50 (second compound 10 µM)
active: viability, T/C [2] 1.21% | viability, T/C [3] 7.48% | viability, T/C [4] 0.02% | viability, T/C [5] 0.02% | viability, T/C [6] 0.09% | viability, T/C [8] 0.69% | viability, T/C [9] 0.05% | viability, T/C [10] 0.01% | viability, T/C [11] 0.01% | viability, T/C [12] 0.08% | viability, T/C [14] 0.65% | viability, T/C [15] 0.02% | viability, T/C [16] 0.01% | viability, T/C [17] 0.01% | viability, T/C [18] 0.09% | viability, T/C [20] 0.58% | viability, T/C [21] 0.16% | viability, T/C [22] 0.01% | viability, T/C [23] 0.02% | viability, T/C [24] 0.1% | viability, T/C [26] 0.27% | viability, T/C [27] 0.11% | viability, T/C [28] 0.12% | viability, T/C [29] 0.14% | viability, T/C [30] 0.14%
inactive: viability, T/C [1] 18.7% | viability, T/C [7] 19% | viability, T/C [13] 18.5% | viability, T/C [19] 15.5% | viability, T/C [25] 11.2%

CC(C)CC(NC(=O)CNC(=O)c1cc(Cl)ccc1Cl)B1OC(=O)CC(CC(=O)O)(C(=O)O)O1 (stereo not given) + NC1CC1c1ccc(-c2cccc(O)c2)cc1
inactive: viability, T/C [1] 125% | viability, T/C [2] 126% | viability, T/C [3] 75% | viability, T/C [7] 130% | viability, T/C [8] 113% | viability, T/C [9] 79.6% | viability, T/C [10] 10.3% | viability, T/C [13] 132% | viability, T/C [14] 116% | viability, T/C [15] 78.6% | viability, T/C [16] 9.38% | viability, T/C [19] 121% | viability, T/C [20] 103% | viability, T/C [21] 65.7% | viability, T/C [22] 8.61% | viability, T/C [25] 82.8% | viability, T/C [26] 87.5% | viability, T/C [27] 52%
8.29: pIC50 (second compound 0.316 µM) | pIC50 (second compound 1 µM)
8.31: pIC50 (second compound 0.1 µM)
8.37: pIC50 (second compound 3.16 µM)
active: viability, T/C [4] 10.1% | viability, T/C [5] 1.77% | viability, T/C [6] 0.48% | viability, T/C [11] 2.04% | viability, T/C [12] 0.45% | viability, T/C [17] 1.61% | viability, T/C [18] 0.42% | viability, T/C [23] 1.75% | viability, T/C [24] 0.31% | viability, T/C [28] 5.61% | viability, T/C [29] 1.05% | viability, T/C [30] 0.22%
8.47: pIC50 (second compound 10 µM)

COc1cc(Nc2ncc3c(n2)-c2ccc(Cl)cc2C(c2c(F)cccc2OC)=NC3)ccc1C(=O)O + NC1CC1c1ccc(-c2cccc(O)c2)cc1
inactive: viability, T/C [3] 32% | viability, T/C [4] 34% | viability, T/C [5] 17.9% | viability, T/C [6] 23.5% | viability, T/C (second compound 0.1 µM, first compound 0.316 µM) 21.7% | viability, T/C (second compound 0.1 µM, first compound 1 µM) 20.1% | viability, T/C [9] 30.3% | viability, T/C [10] 35.4% | viability, T/C [11] 20.9% | viability, T/C [12] 21.7% | viability, T/C (second compound 0.316 µM, first compound 0.316 µM) 25.4% | viability, T/C (second compound 0.316 µM, first compound 1 µM) 19.1% | viability, T/C [15] 33.5% | viability, T/C [16] 35.8% | viability, T/C [17] 20.4% | viability, T/C [18] 21.6% | viability, T/C (second compound 1 µM, first compound 0.316 µM) 22.1% | viability, T/C (second compound 1 µM, first compound 1 µM) 19.6% | viability, T/C [21] 27% | viability, T/C [22] 29.8% | viability, T/C [23] 19.8% | viability, T/C [24] 13.2% | viability, T/C (second compound 3.16 µM, first compound 0.316 µM) 19.4% | viability, T/C (second compound 3.16 µM, first compound 1 µM) 15.4% | viability, T/C [27] 15% | viability, T/C [28] 20.2% | viability, T/C [29] 14.2% | viability, T/C [30] 8.64% | viability, T/C (second compound 10 µM, first compound 0.316 µM) 11.8% | viability, T/C (second compound 10 µM, first compound 1 µM) 12.7%
> 8.50: pIC50 (second compound 0.1 µM) | pIC50 (second compound 0.316 µM) | pIC50 (second compound 1 µM) | pIC50 (second compound 3.16 µM) | pIC50 (second compound 10 µM)
